Laboratory results reported in publication PMC3024946, “Hydroxyproline-containing collagen analogs trigger the release and activation of collagen-sequestered proMMP-2 by competition with prodomain-derived peptide P33-42” (Fibrogenesis & Tissue Repair, 2011).
Entries after “also recorded” stand apart in the source; their conditions may differ.

Key:
collagen type I (CI) = assay: SPR binding of MMPs to immobilized CI, nonactivating buffer; set-up: species or system human
Protocol: (§1) Sensor chip preparations and SPR measurements were performed using a BiacoreX device and the Bia-evaluation software (version 3.2; Biacore, Uppsala, Sweden). The pepsin-resistant triple-helical part of human fibrillar CI (100 μg/ml) in 10 mM acetate coupling buffer, pH 4.8, was immobilized to a dextran matrix-sensor chip at a flow rate of 5 μl/min, resulting in 5,500 resonance units from CI covalently linked via its primary amino groups. The control flow cell was prepared using the coupling buffer without CI. Surfaces were activated and blocked as described previously. Immediately after thawing, pro- and actMMP-2 and pro- and actMMP-9 were diluted to 100 to 250 nM in MMP activity buffer or in PBS and 0.05% (vol/vol) Tween 20. For SPR measurements, flow rates were 10 μl/min at 25°C, and equilibrium was typically reached after 30 to 60 s. The effects of (GPO)10, GAP, (POG)5, (GPP)10 and P33-42 on MMP-2 and MMP-9 binding to CI and their enzymatic activity were determined by adding the binding competitors to the (pro- and act)MMP-2 and MMP-9 solution in 10- to 150-fold molar excesses. Effects independent of MMP-2 and MMP-9 activity were monitored in the presence of Ro 28-2653 (1 μM) during SPR analysis. The gelatinase inhibitor Ro 28-2653 was a generous gift from H.-W. Krell (Roche, Grenzach-Wyhlen, Germany). Sensor surfaces were regenerated with 10 mM glycine, pH 2.3, for 1 min between runs, and sensor chips were used up to 25 times. Kinetic parameters were analyzed using the 1:1 binding model with drifting baseline and subtraction of the control flow cell binding from sensorgrams obtained with immobilized CI. Binding constants (Kd) were calculated from the association (ka) and dissociation rates (kd) obtained from individual binding curves at different concentrations. Individual drifts of the resonance signal were fitted locally, and χ^2 values of 0.2% to 1.0% of the maximum resonance value were considered good fits.

[1] = In situ binding of MMPs to fibrotic liver sections; set-up: species or system human; conditions: immunohistochemistry; 25 ng MMP, 30 min
Protocol: Human cirrhotic liver cryostat sections (5 μm) were air-dried and fixed in ice-cold acetone for 10 min. Tissue sections were rehydrated with PBS and incubated with 25 ng/50 μl of the respective proMMP and actMMP for 30 min or were left untreated. After thorough washing with PBS, antibodies specific for human MMP-9 (clone MAB911; R&D Systems, Minneapolis, MN, USA) and human MMP-2 (clone 75-7F7; Oncogene, Cambridge, MA, USA) were applied, and primary antibody binding was detected using the alkaline phosphatase-antialkaline phosphatase detection system (Dako, Hamburg, Germany). An irrelevant primary mouse antibody served as control. Nuclei were counterstained with Hemalaun, and slides were examined by standard light microscopy.

proMMP-2 / CI = target: T1, proMMP-2 / CI (Homo sapiens, UniProt P08253); assay: SPR, competition of proMMP-2 binding to CI, MMP activity buffer with Ro 28-2653
T1 construct: prodomain-containing proMMP-2 or proMMP-9; purchased Invitek
T1 sequence (P08253 30-660 limits assumed): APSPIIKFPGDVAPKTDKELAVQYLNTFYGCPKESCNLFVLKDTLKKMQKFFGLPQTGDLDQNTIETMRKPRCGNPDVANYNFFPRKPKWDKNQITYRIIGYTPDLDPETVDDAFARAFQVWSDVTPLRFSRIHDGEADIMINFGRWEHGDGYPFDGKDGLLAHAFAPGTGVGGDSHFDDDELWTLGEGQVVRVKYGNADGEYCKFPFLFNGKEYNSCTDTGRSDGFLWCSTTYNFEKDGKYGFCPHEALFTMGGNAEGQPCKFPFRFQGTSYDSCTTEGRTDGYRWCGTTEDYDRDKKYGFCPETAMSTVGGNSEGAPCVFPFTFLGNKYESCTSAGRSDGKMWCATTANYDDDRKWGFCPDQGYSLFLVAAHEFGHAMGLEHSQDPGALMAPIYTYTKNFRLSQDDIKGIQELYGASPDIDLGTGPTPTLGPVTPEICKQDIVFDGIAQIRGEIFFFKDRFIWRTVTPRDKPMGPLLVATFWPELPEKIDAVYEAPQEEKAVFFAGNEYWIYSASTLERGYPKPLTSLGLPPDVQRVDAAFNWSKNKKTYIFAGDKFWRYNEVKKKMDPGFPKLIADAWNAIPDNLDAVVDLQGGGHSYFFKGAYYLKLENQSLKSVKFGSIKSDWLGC
Protocol: as §1

ProMMP-2 [2] = assay: Substrate gel zymography of treated proMMP-2; format: biochemical, human; conditions: 50 ng proMMP-2, 2-h incubation at room temperature
Protocol: Samples containing MMP-2 were diluted with zymogram sample buffer (Bio-Rad, Munich, Germany) and separated on homogeneous 10% SDS-PAGE gels containing 1 mg/ml (wt/vol) gelatine (Bio-Rad), washed with excess MMP activity buffer containing 2.5% (vol/vol) Triton X-100 to remove SDS, and incubated with MMP activity buffer for 24 h. Gels were stained with Coomassie Blue R-250. Gels showing proteolytic bands corresponding to proMMP-2 (72 kDa) or actMMP-2 (62 kDa) were scanned (Plustek, Norderstedt, Germany) and analyzed from inverted grayscale images.

ProMMP-2 [3] = assay: DQ-gelatine degradation assay with MMP-2; format: biochemical, human; conditions: for DQ-gelatine cleavage by proMMP-2: 5 h at 25°C
Protocol: (§2) Enzymatic activities of MMPs were studied spectrofluorimetrically by cleavage of fluorogenic substrates in MMP activity buffer within 2 to 5 h. For gelatinases 800 nM MCA-Pro-Leu-Gly-Leu-Dnp-Dap-Ala-Arg-NH2 (λex/em 328/393 nm; Bachem, Bubendorf, Switzerland) or 10 μg/ml DQ-gelatine were used, according to the method described by Knight et al. for collagenases 800 nM MCA-Pro-Cha-Gly-Nva-His-Ala-Dpa-NH2 (λex/em 280/360 nm; Anaspec, San José, CA, USA). In some experiments, proMMP-2 was fully activated in the presence of 1 mM APMA prior to the kinetic measurements. A quantity of 50 ng pro- or actMMP-2 alone or mixed with 10- to 150-fold molar excesses of (GPO)10, GAP, P33-42 or mixtures of (GPO)10 and P33-42, were added to CI-coated, BSA-coated (1 μg/well both) or uncoated wells containing 150 μl of the respective substrate solution. The peptide P33-42 was purchased from the Institute of Biochemistry (Humboldt-University, Berlin, Germany). The influence of CI on MMP-2 enzymatic activity against the quenched fluorescent substrate could be excluded. Background subtraction (measurement without MMPs) was applied to all curves. All experiments were performed with a fluorescence microplate reader (Molecular Devices, Sunnyvale, CA, USA) and black 96-well microtiter plates with a clear bottom (Greiner bio-one, Frickenhausen, Germany).

MMP-9 = assay: Effect of P33-42 on MMP-9; format: biochemical; conditions: MMP devoid of prodomain-CBD interaction; data not shown
Protocol: as §2

MMP-13 = assay: Effect of P33-42 on MMP-13; format: biochemical; conditions: MMP without CBD; data not shown
Protocol: as §2

[4] = target: Col-3 module of the CBD of MMP-2; conditions: ref [7]; cited from earlier work
From the text: Finally, we asked how (GPO)10 competes CBD-mediated binding of proMMP-2 to fibrillar collagen and thereby modulates binding as well as enzymatic activity and activation. We made use of the P33-42 peptide derived from the prodomain of MMP-2. […] Even at high molar ...

ActMMP-9: 86-kDa activated form of MMP-9
binding to CI relative to proMMP-9 (collagen type I (CI); nonactivating conditions): sevenfold less effectively | Off rate (collagen type I (CI); without (GPO)10, MMP 100 nM, PBS, 0.05% Tween 20, 25°C, mean from at least three experiments): 0.76 s⁻¹ | Kd (collagen type I (CI); without (GPO)10, MMP 100 nM, PBS, 0.05% Tween 20, 25°C, mean ± SD, at least three experiments): 0.87 ± 0.39 µM | binding to liver sections [1]: No significant binding

P33-42: MMP-2 prodomain-derived CBD-binding peptide (PIIKFPGDVA)
competition with proMMP-2 binding to CI (proMMP-2 / CI; SPR, MMP activity buffer with Ro 28-2653): competed with proMMP-2 binding to CI; also recorded: only slightly inhibited proMMP-2 binding to CI | increase of Kd of proMMP-2 binding to CI (proMMP-2 / CI; high (up to 100-fold) molar excesses, 100-250 nM proMMP-2, 1 μM Ro 28-2653): up to 50% | substrate zymography, prodomain-free actMMP-2 band (ProMMP-2 [2]): did not occur | DQ-gelatine cleavage by proMMP-2 (ProMMP-2 [3]; 50- to 100-fold molar excesses): no activating effect but a slight inhibitory effect | DQ-gelatine cleavage by proMMP-2 (ProMMP-2 [3]; 150-fold molar excess): more enhanced inhibitory effect | proMMP-2 activation (ProMMP-2 [3]; P33-42 alone, even at high molar excesses): did not activate proMMP-2; also recorded: did not affect proMMP-2 activation | effect on inhibitory effect of (GPO)10 on MMP-2 activity (ProMMP-2 [3]; equimolar mixture of (GPO)10 and P33-42, 150-fold molar excess): the inhibitory effect of (GPO)10 on MMP-2 activity was diminished | effect on (GPO)10-mediated activation of proMMP-2 (ProMMP-2 [3]; equimolar mixtures of (GPO)10 and P33-42, 50- to 100-fold molar excesses): prevented (GPO)10-mediated proMMP-2 activation; also recorded: drastically diminished the activating effect of (GPO)10 on proMMP-2; also recorded: blocked (GPO)10-mediated proMMP-2 activation | effect on MMP (MMP-9): no effects | effect on MMP (MMP-13): no effects | Kd [4]: 1600 µM
